Data reported in patent publication US10676465B2, “GLP-1 receptor agonists and uses thereof” (Pfizer Inc., priority 2018, dated 2020).

Molecular target: human GLP-1R (Homo sapiens, UniProt P43220, G168S)
Experiment: CHO GLP-1R Clone H6 - Assay 1 (HTRF cAMP agonist assay)
Type: cell-based
Details: for EC50: CHO GLP-1R Clone H6, cAMP HTRF, geometric mean; for Emax: CHO GLP-1R Clone H6, arithmetic mean, relative to saturating GLP-1 (1 μM)

human GLP-1R, sequence (P43220 24-463 G168S limits assumed): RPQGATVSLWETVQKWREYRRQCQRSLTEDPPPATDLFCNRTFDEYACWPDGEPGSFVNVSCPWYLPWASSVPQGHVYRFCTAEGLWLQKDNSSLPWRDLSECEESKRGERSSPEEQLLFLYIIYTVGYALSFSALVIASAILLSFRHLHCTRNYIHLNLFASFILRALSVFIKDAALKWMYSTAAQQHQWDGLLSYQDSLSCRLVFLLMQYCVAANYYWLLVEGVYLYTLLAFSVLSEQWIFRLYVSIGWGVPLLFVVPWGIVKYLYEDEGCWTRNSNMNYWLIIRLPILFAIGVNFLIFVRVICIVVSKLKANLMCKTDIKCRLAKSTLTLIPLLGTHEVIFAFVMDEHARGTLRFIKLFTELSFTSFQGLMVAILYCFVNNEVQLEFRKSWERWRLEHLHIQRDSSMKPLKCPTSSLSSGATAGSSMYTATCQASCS

| Compound | EC50 [nM] | Emax [%] |
| --- | --- | --- |
| COCCn1c(CN2CCC(c3cccc4c3OC(C)(c3cccc(OC)c3)O4)CC2)nc2ccc(C(=O)O)cc21 (stereo not shown) [Example 39, 1-(2-methoxyethyl)-2-({4-[2-(3-methoxyphenyl)-2-methyl-1,3-benzodioxol-4-yl]piperidin-1-yl}methyl)-1H-benzimidazole-6-carboxylic acid] | 200 | 83 |
| COCCn1c(CN2CCC(c3cccc4c3OC(C)(c3cccnc3)O4)CC2)nc2ccc(C(=O)O)cc21 (stereo not shown) [Example 11, 1-(2-Methoxyethyl)-2-({4-[2-methyl-2-(pyridin-3-yl)-1,3-benzodioxol-4-yl]piperidin-1-yl}methyl)-1H-benzimidazole-6-carboxylic Acid] | 290 | 78 |
| COCCn1c(CN2CCC(c3cccc4c3OC(C)(c3ccccn3)O4)CC2)nc2ccc(C(=O)O)cc21 (stereo not shown) [Example 90, 1-(2-methoxyethyl)-2-({4-[2-methyl-2-(pyridin-2-yl)-1,3-benzodioxol-4-yl]piperidin-1-yl}methyl)-1H-benzimidazole-6-carboxylic acid] | > 20000 |  |
| CC1(c2ccc(Cl)cc2F)Oc2cccc(C3CCN(Cc4nc5ccc(C(=O)O)cc5n4CCN4CCOCC4)CC3)c2O1 (stereo not shown) [Example 44, 2-({4-[2-(4-chloro-2-fluorophenyl)-2-methyl-1,3-benzodioxol-4-yl]piperidin-1-yl}methyl)-1-[2-(morpholin-4-yl)ethyl]-1H-benzimidazole-6-carboxylic acid] | 160 | 78 |
| COCCn1c(CN2CCN(c3cccc4c3OC(c3ccccc3)O4)CC2)nc2ccc(C(=O)O)cc21 (stereo not shown) [Example 22, 1-(2-methoxyethyl)-2-{[4-(2-phenyl-1,3-benzodioxol-4-yl)piperazin-1-yl]methyl}-1H-benzimidazole-6-carboxylic acid] | > 20000 |  |
| COCCn1c(CN2CCC(c3cccc4c3OC(CO)(c3ccccc3)O4)CC2)nc2ccc(C(=O)O)cc21 (stereo not shown) [Example 102, 2-({4-[2-(hydroxymethyl)-2-phenyl-1,3-benzodioxol-4-yl]piperidin-1-yl}methyl)-1-(2-methoxyethyl)-1H-benzimidazole-6-carboxylic acid] | 600 | 86 |
| COCCn1c(CN2CCC(c3cccc4c3OC(C)(c3cccc(C)c3)O4)CC2)nc2ccc(C(=O)O)cc21 (stereo not shown) [Example 85, 1-(2-methoxyethyl)-2-({4-[2-methyl-2-(3-methylphenyl)-1,3-benzodioxol-4-yl]piperidin-1-yl}methyl)-1H-benzimidazole-6-carboxylic acid] | 230 | 80 |
| CC1(c2ccc(Cl)cn2)Oc2cccc(C3CCN(Cc4nc5ccc(C(=O)O)cc5n4C[C@@H]4CCO4)CC3)c2O1 (stereo partly drawn) [Example 95, 2-({4-[2-(5-chloropyridin-2-yl)-2-methyl-1,3-benzodioxol-4-yl]piperidin-1-yl}methyl)-1-[(2S)-oxetan-2-ylmethyl]-1H-benzimidazole-6-carboxylic acid] |  | 77 |
| COCCn1c(CN2CCC(c3cccc4c3OC(C)(c3cccc(C(F)(F)F)c3)O4)CC2)nc2ccc(C(=O)O)cc21 (stereo not shown) [Example 28, 1-(2-methoxyethyl)-2-[(4-{2-methyl-2-[3-(trifluoromethyl)phenyl]-1,3-benzodioxol-4-yl}piperidin-1-yl)methyl]-1H-benzimidazole-6-carboxylic acid] | 480 | 87 |
| COCCn1c(CN2CCN(c3cccc4c3OC(c3ccccc3)O4)CC2)nc2ccc(C(=O)O)cc21 (stereo not shown) [Example 23, 1-(2-methoxyethyl)-2-{[4-(2-phenyl-1,3-benzodioxol-4-yl)piperazin-1-yl]methyl}-1H-benzimidazole-6-carboxylic acid] | 680 | 76 |
| CC1(c2ccc(Cl)cc2F)Oc2cccc(C3CCN(Cc4nc5ccc(C(=O)O)cc5n4CCc4ncc[nH]4)CC3)c2O1 (stereo not shown) [Example 74, 2-({4-[2-(4-chloro-2-fluorophenyl)-2-methyl-1,3-benzodioxol-4-yl]piperidin-1-yl}methyl)-1-[2-(1H-imidazol-2-yl)ethyl]-1H-benzimidazole-6-carboxylic acid] | 460 | 90 |
